Measurements: patent US20080124310A1, “Bead based receptor biology” (priority 2006, published 2008)
Entries after “also recorded” stand apart in the source; their conditions may differ.

Tests used:
RAW 264.7 macrophages = assay: Phagocytic receptor assay: engulfment of IgG or ligand coated particles by RAW macrophages (foam cell model), confocal; type: cell-based, murine; details: for engulfment / accumulation of IgG or ligand coated particles: RAW macrophages, confocal
Excerpt: FIG. 25, panels A and B, illustrate respectfully a method for measurement of phagocytic receptors and a method for measuring transfection or delivery of nucleic acids and simultaneous measurement of particle engulfment using a single cell multi label confocal microscope experiment. A direct or surrogate measurement of receptor function or receptor pathway activity must be made in order establish the role of potential therapeutic target proteins in receptor function. IgG, complement, low density lipoprotein (LDL), oxidatively modified LDL (OX-LDL). Acetyl-LDL, apolipoproteins, lipoproteins, lipopolysaccharide (LPS), scavenger and other receptor functions can be measured by the accumulation of particles. The particles may themselves be comprised in part of fluorescent materials or can be directly stained with fluorescent or other colored materials or can be bound by proteins that directly or indirectly permit the attachment of fluorescent, chemiluminescent or other reporter molecules. The beads may be stained in live cells or cells fixed with formalin or paraformaldehyde or organic solvents such as alcohol and acids or by other means. The beads can be stained both before or after internalization with or without the permeabilization of the cells by detergents or organic solvents. The beads may be cells that can be lysed and imaged directly. The cells may be counter stained for the presence of specific proteins using antibodies or may express fluorescent protein constructs or contain fluorescent silencing RNA or DNA constructs or biopolymer modulating agents or drugs (FIG. 25).
We created a foam cell model and quantitative confocal assays for micro particle engulfment by macrophages. The engulfment of particles by macrophages and the generation of free radicals by leukocytes are the key physiological actions that lead to the generation of foam cells that are the center of atherosclerotic plaques. We made a cellular model system of foam cells or activated leukocytes and examine the effects of moderate levels of alcohol over time on the accumulation of particles and generation of free radicals at the site of particle accumulation compared to statins and propranolol. The model systems will consist of RAW macrophages that engulf hydrophobic polystyrene microparticles with or without coating by ligands or mixtures of ligands such as those found in cellular growth media, or free fluorescently labeled DI-LDL, OX-LDL, Acetyl LDL or other. Live cell confocal microscopy was used to quantify the effects of ethanol, compared to lovastatin and propranolol, on particle engulfment.
External particles were stained green with secondary anti rabbit FITC and then cells were permeablized and all particles stained red with secondary anti rabbit CY3. Thus engulfed particles appear red while external particles appear yellow. Beads within the cells carrying only the red signal (engulfed) and not also the green signal {red+green=yellow} (outside) were quantified for accumulation assays using both total fluorescence in the green channel and by counting individual beads in three fields on three independent cover slips for each concentration.
RAW 264.7 macrophages were cultured in alpha MEM with 5% fetal calf serum as described. The effects of lovastatin on IgG and LDL coated micro-particle engulfment at 0, 50 nM, 100 nM, 500 nM, 1 mM and higher was tested. The accumulation of free DI-LDL was quantified directly by its red fluorescence. External particles were stained green with secondary anti rabbit FITC and then cells were permeablized and all particles stained red with secondary anti rabbit CY3. Thus engulfed particles appear red while external particles appear yellow.

PI3K pathway to PIP3 = assay: PIP3 accumulation at site of IgG coated particles measured with AKT/PH-GFP; type: cell-based, murine
Description: FIG. 27 illustrates the use of PiP3 binding PH domains to screen atherosclerosis drugs in macrophages.
The PI3K pathway that converts PIP4, 5 bis-phosphate to PIP3, 4, 5, triphosphate, also called PIP3. PIP3 is measured by the Pleckstrin Homology (PH) domain of the protein kinase AKT, that has a high affinity for PIP3, fused to GFP (AKT/PH-GFP). The accumulation of phosphatidyl inositol triphosphate at the site of IgG coated particles was inhibited using wortamannin, and LY294002 dissolved into the cell experimental media.

[1] = tested on: sheep red blood cells phagocytosis; assay: Phagocytosis of sheep red blood cells; type: cell-based; details: 15 to 30 minute incubation
RAW cells = assay: Cellular cholesterol extraction, filipin staining; type: cell-based, murine; details: brief incubation
Excerpt: Cholesterol levels were quantified by the esterase assay, oil red- and filipin-staining.

human neutrophils = assay: fMLP induced oxidative burst, cytochrome C reduction assay; type: cell-based
RAW macrophages = assay: Biochemical measurement of protein levels in fractions of drug treated RAW macrophages; type: cell-based, murine; details: FIG. 67 cytosol fractions
Excerpt: A now well established side effect of ethanol is to prevent heart attack. Thus the common effects of statins, propranolol, and ethanol must be closely linked to the central mechanism that is the most important pharmacological target of heart attack and thus atherosclerosis prevention. It remains possible that the preventative effect of statins results from their effect to inhibit particle engulfment and foam cell formation by macrophages leading to atherosclerotic plaques. We created a foam cell model and quantitative confocal assays for micro particle engulfment by macrophages. The engulfment of particles by macrophages and the generation of free radicals by leukocytes are the key physiological actions that lead to the generation of foam cells that are the center of atherosclerotic plaques. We have made a cellular model system of leukocytes or activated leukocytes or leukocytes treated over time to examine the effects drugs and biopolymer modification materials over time on the activation of receptors at the site of modified or ligand coated particles. The drugs used in this system to examine the kinetics of receptor function at modified particles may result in changes to the cell including changes in gene expression at the level of DNA transcription, RNA production, accumulation or post-transcription processing, mRNA production accumulation or expression all of which may also alter protein expression. We examined the use of these model systems with and without beads as a system to screen the effects of drugs that are known to prevent heart attack and stroke in model of leukocyte cells within atherosclerotic plaques. We observe that drugs that effect receptor associated signaling may also alter gene, RNA or ultimately protein expression in cells resulting in changes in protein levels. Proteins that change levels in response to a drug may be themselves drug target proteins.
The drugs used in the leukocyte model system to examine the kinetics of receptor function at modified particles may result in changes to the cell including changes in gene expression at the level of DNA transcription, RNA production, accumulation or post-transcription processing, mRNA production accumulation or expression all of which may also alter protein expression. We examined the use of these model systems with and without beads as a system to screen the effects of drugs that are known to effect receptor response at or near the cell surface or interior of the cells. We observe that drugs that effect receptor associated signaling may also alter gene, RNA or ultimately protein expression in cells resulting in changes in protein levels. Proteins that change levels in response to a drug may be themselves drug target proteins. […] The RAW leukocyte model foam cells system alone or in combination with the bead based biology system can be used to characterize the effects of receptor or cellular activation in terms of second messengers such as lipid and protein phosphorylation with respect to drug treatment or time in the cytosol of leukocytes (FIG. 67).

[2] = in vivo; cited from earlier work
PLC = details: PLC-delta PH domain
Excerpt: The metabolic activation of the receptor pathway at the binding site of modified beads such as ligand coated particles may be detected, measured and quantified using green fluorescence protein (GFP) fused with binding domains specific to different biopolymers, or modified biopolymers or metabolites in including phosphorylations at the site of modified particle or bead or binding.

PLD pathway = details: 500 micromolar; cited from earlier work
[3] = tested on: PLD/PAP-1 pathway (DAG production); assay: DAG production at site of particle engulfment measured with PKC/C2-GFP; type: cell-based, murine
Excerpt: FIG. 28 illustrates use of DAG binding domains to screen for atherosclerosis drugs in macrophages.

[4] = listed as Methyl-beta-cyclo-dextrin
[5] = listed as methyl beta cyclo dextrin

Question: Which “engulfment / accumulation of IgG or ligand coated particles” value (“engulfment / accumulation” for short) (RAW 264.7 macrophages) does the source give for `CC(C)(C)n1nc(-c2ccc(Cl)cc2)c2c(N)ncnc21` [PP2] here?
Answer: inhibited

Question: Which “accumulation of PIP3 at the site of IgG coated particles” value (from here on “accumulation of PIP3”) (PI3K pathway to PIP3) does the source give for `C=C1[C@@H](C)[C@H]2[C@H](Cc3ccccc3)NC(=O)[C@]23[C@H](OC(C)=O)/C=C/[C@@](C)(O)C(=O)[C@@H](C)C/C=C/[C@H]3[C@@H]1O` [cytochalasin D] here?
Answer: inhibited

Question: Which “phagocytosis of sheep red blood cells” value [1] does the source give for methyl-beta cyclodextrin [MBCD] here?
Answer: no effect

Question: And the “accumulation of PIP3” value (PI3K pathway to PIP3)?
Answer: did not prevent

Question: What about the “extraction of cellular cholesterol” value (RAW cells; [4]) of the same compound?
Answer: highly effective cholesterol scavenger

Question: What about the “extraction of cellular cholesterol” value (RAW cells; [5]) of the same compound?
Answer: effective to extract cholesterol

Question: What about the “engulfment / accumulation” value (RAW 264.7 macrophages) of the same compound?
Answer: no effect on particle engulfment

Question: What about the “engulfment / accumulation” value (RAW 264.7 macrophages; [4]) of the same compound?
Answer: no effect on particle accumulation

Question: And the “engulfment / accumulation” value (RAW 264.7 macrophages; [5])?
Answer: little inhibitory effect

Question: With `CCCCCCCC(=O)OCC(CO)OC(=O)CCCCCCC` (centres unmarked) [DiC8] as the compound, how does the “reversal of PLD pathway inhibitor effect on particle engulfment” value (RAW 264.7 macrophages; add-back of PLD pathway product) read?
Answer: the effect is reversed by DiC8

Question: For `COCCc1ccc(OCC(O)CNC(C)C)cc1` (centres unmarked) [metoprolol], which “fMLP induced oxidative burst (super oxide radicals)” value (“fMLP induced oxidative burst” for short) (human neutrophils) is on record?
Answer: not as effective as the PAP-1 inhibitor propranolol

Question: What about the “engulfment / accumulation” value (RAW 264.7 macrophages) of the same compound?
Answer: do not inhibit particle engulfment

Question: Which results are given for `CC(C)NCC(O)COc1cccc2[nH]ccc12` (centres unmarked) [pindolol]?
Answer: fMLP induced oxidative burst (super oxide radicals) (human neutrophils): not as effective as the PAP-1 inhibitor propranolol; engulfment / accumulation of IgG or ligand coated particles (RAW 264.7 macrophages): do not inhibit particle engulfment

Question: For `[F][Al-]([F])([F])[F]` [AlF4], which “levels of proteins after G protein stimulatory drug (FIG. 67)” value (RAW macrophages) is on record?
Answer: alter levels of proteins in the membranes

Question: What does the source list for `CC(C)(C)NCC(O)COc1cccc2c1CC(O)C(O)C2` (centres unmarked) [nadolol]?
Answer: fMLP induced oxidative burst (super oxide radicals) (human neutrophils): not as effective as the PAP-1 inhibitor propranolol; engulfment / accumulation of IgG or ligand coated particles (RAW 264.7 macrophages): do not inhibit particle engulfment

Question: Which results are given for `CC(C)NCC(O)COc1cccc2ccccc12` (centres unmarked) [propranolol]?
Answer: decrease in rate of heart attack [2]: about 35%; PIP2 catalysis by PLC (PLC): neither EtOH, HELSS or propranolol interfere with the catalytic action of PLC; effect in in vitro experiments (PLD pathway): little effect; fMLP induced oxidative burst (super oxide radicals) (human neutrophils): inhibited the fMLP induced oxidative burst in a dose dependant manner; also recorded: much greater effect in preventing the generation of free radicals; accumulation of PIP3 at the site of IgG coated particles (PI3K pathway to PIP3): no side effect on the PI3K pathway to PIP3; engulfment / accumulation of IgG or ligand coated particles (RAW 264.7 macrophages): prevent particle accumulation; engulfment / accumulation of IgG or ligand coated particles (RAW 264.7 macrophages; listed as Propranolol): had the largest effect in preventing the engulfment; DAG production at the site of ligand coated bead binding [3]: prohibit DAG production

Question: Which results are given for `CCCCC/C=C\C/C=C\C/C=C\C/C=C\CCCC(=O)C(F)(F)F` [AACOCF3]?
Answer: fMLP induced oxidative burst (super oxide radicals) (human neutrophils): little effect on the oxidative burst; DAG production at the site of ligand coated bead binding [3]: Neither MAFP nor AACOCF3 prevent DAG production

Question: What does the source list for `CCCC(=O)Nc1ccc(OCC(O)CNC(C)C)c(C(C)=O)c1` (centres unmarked) [acetbutolol]?
Answer: fMLP induced oxidative burst (super oxide radicals) (human neutrophils): not as effective as the PAP-1 inhibitor propranolol; engulfment / accumulation of IgG or ligand coated particles (RAW 264.7 macrophages): do not inhibit particle engulfment

Question: Which “fMLP induced oxidative burst” value (human neutrophils) does the source give for `CC(C)NCC(O)COc1ccc(CC(N)=O)cc1` (centres unmarked) [atenolol] here?
Answer: not as effective as the PAP-1 inhibitor propranolol

Question: What about the “engulfment / accumulation” value (RAW 264.7 macrophages) of the same compound?
Answer: do not inhibit particle engulfment

Question: For `O=C1O/C(=C/Br)CCC1c1cccc2ccccc12` (centres unmarked) [HELSS], which “PIP2 catalysis by PLC” value (PLC) is on record?
Answer: neither EtOH, HELSS or propranolol interfere with the catalytic action of PLC

Question: What about the “fMLP induced oxidative burst” value (human neutrophils) of the same compound?
Answer: inhibited the fMLP induced oxidative burst in a dose dependant manner

Question: And the “accumulation of PIP3” value (PI3K pathway to PIP3)?
Answer: no side effect on the PI3K pathway to PIP3

Question: What about the “engulfment / accumulation” value (RAW 264.7 macrophages) of the same compound?
Answer: prevent particle accumulation

Question: And the “DAG production at the site of ligand coated bead binding” value [3]?
Answer: prohibit DAG production; also recorded: inhibitory effect

Question: What does the source list for `CCO` [ethanol]?
Answer: PIP2 catalysis by PLC (PLC): neither EtOH, HELSS or propranolol interfere with the catalytic action of PLC; fMLP induced oxidative burst (super oxide radicals) (human neutrophils): inhibited the fMLP induced oxidative burst in a dose dependant manner; accumulation of PIP3 at the site of IgG coated particles (PI3K pathway to PIP3): no side effect on the PI3K pathway to PIP3; engulfment / accumulation of IgG or ligand coated particles (RAW 264.7 macrophages): prevent particle accumulation; DAG production at the site of ligand coated bead binding [3]: prohibit DAG production
